# Results as given in article PMC10811918, “Mechanisms of Bushen Tiaoxue Granules against controlled ovarian hyperstimulation-induced abnormal morphology of endometrium based on network pharmacology” (Journal of Ovarian Research, 2024).
# Like-named read-outs stand apart in the source and are kept apart here.
# Tests used:
# [1] = test system: Human endometrial stromal cells (hESC); assay: Cytotoxicity on hESC (CCK8 cell viability); assay type: cell-based; settings: for IC50: read-out: IC50 (inhibition of hESC proliferation)
# Procedure: Human endometrial stromal cells (hESC) were obtained from the Meisen Chinese Tissue Culture Collections (Zhejiang, China). The basal culture medium for hESC comprised DMEM/F12 supplemented with 10% fetal bovine serum (FBS) and 1% penicillin–streptomycin. The culture environment was maintained at 5% CO2 and 37 °C. […] Six gradients of concentrations were established to determine the IC50 of these compounds.
# (§1) D-Galactose (D-Gal) was procured from Solabio Company (Beijing, China) and prepared in DMEM/F12 at a concentration of 200 mM as the modeling drug. hESC were uniformly seeded at 4 × 10^3 cells/well in a 96-well plate with 6 replicates per group, while wells treated only with basal culture medium served as the control group. Following cell adhesion, a 24-h intervention with 200 mM D-Gal was administered, followed by a 24-h culture with the appropriate concentration of natural product selected from the screening. CCK8 solution (Solabio, Beijing, China) was added to the wells and incubated in the culture chamber for 2 h, and absorbance was recorded at 450 nm using a microplate reader (Bio-Rad, USA).
# All data in this study were analyzed by SPSS 22.0 software, and the results were presented as mean ± SEM. The one-way ANOVA, followed with Turkey’s test was performed for multiple comparison. p value < 0.05 was considered statistically significant. GraphPad Prism is utilized for calculating IC50 values and organizing graphs.
# Previous studies have identified an increased senescent phenotype in endometrial stromal cells post COH, which is unfavorable for decidualization during embryo implantation. D-Gal is a widely recognized mimetic agent causing oxidative stress damage and promoting aging.
# mouse embryos = test system: mouse embryos; set-up: method as in PMID 25896022; settings: cited from earlier work
# [2] = test system: hESC with D-Gal-induced damage; assay: Protection against D-Gal-induced damage in hESC (CCK-8); assay type: cell-based, Human; settings: 200 mM D-Gal 24 h, then compound 24 h at two concentrations: quercetin 50/25 μM, taxifolin 260/130 μM, kaempferol 400/200 μM, eriodictyol 230/115 μM, isorhamnetin 500/250 μM
# Procedure: as §1
# Cell viability was assessed using CCK-8 assay (Fig. 10A).
# [3] = cited from earlier work
# [4] = Blood drug concentration of kaempferol following BTG administration; assay type: in vivo, rat; settings: rats, BTG 3.27 g/kg oral gavage for 3 days, sampling 10 min to 12 h
# Source text: Supplementary file 13048_2023_1339_MOESM1_ESM.pdf: Additional file 1: Table S1. Composition of the BTG. Table S2. Identification of chemical components in BTG. Table S3. Affinity of ingredients with potential targets. Figure S1. […] Upon usage, it was sequentially diluted to obtain concentration gradient solutions. Utilizing the same 50 female SD rats as employed in the in vivo experiment, two rats constituted the blank control group, while the remaining 48 rats were divided into treatment groups, each consisting of 6 rats. […] The blood samples were centrifuged at 4°C, 3500 rpm for 10 min, and the supernatant was analyzed. Following the UPLC-MS analysis method described earlier, the peak areas of the analyte and internal standard were recorded to calculate the blood drug concentrations at each time point. […] The serum levels of (A) ALT, (B) AST, (C) CREA, (D) UA, and (E) UREA in each group of rats were measured using microplate assays. […]
# stock solution of 200 μg/mL for the mixed control solution. […] The blood samples were centrifuged at 4°C, 3500 rpm for 10 min, and the supernatant was analyzed. Following the UPLC-MS analysis method described earlier, the peak areas of the analyte and internal standard were recorded to calculate the blood drug concentrations at each time point. […]
# mice = settings: dose higher than 800 μg; cited from earlier work
# [5] = hESC, six concentration gradients
smiles,measurement,setting,value
"O=C[C@H](O)[C@@H](O)[C@@H](O)[C@H](O)CO [D-Gal, D-Galactose, reference compound]",inhibition at 200000 µM,"[1]; hESCs, 200 mM, read-out: inhibition of cell proliferation",~50%
O=C(O)[C@H]1O[C@@H](Oc2cc3oc(-c4ccccc4)cc(=O)c3c(O)c2O)[C@H](O)[C@@H](O)[C@@H]1O [baicalin],adhesion rate and implantation rate of mouse embryos,mouse embryos,increase
O=C1C[C@@H](c2ccc(O)c(O)c2)Oc2cc(O)cc(O)c21 [eriodictyol],IC50,[1]; [5],233 µM
same,improvement of cellular viability damage caused by D-Gal,[2],effective improvement
COc1cc(-c2oc3cc(O)cc(O)c3c(=O)c2O)ccc1O [isorhamnetin],IC50,[1]; [5],> 500 µM
same,improvement of cellular viability damage caused by D-Gal,[2],failed to effectively ameliorate
O=c1c(O)c(-c2ccc(O)cc2)oc2cc(O)cc(O)c12 [kaempferol],oral bioavailability,[3],41.88%
same,IC50,[1],399 µM
same,kaempferol concentration in the blood following BTG administration,[4],sustained detectable concentrations even at 8 h
same,improvement of cellular viability damage caused by D-Gal,[2],effective improvement
CS(=O)(=O)Nc1ccc([N+](=O)[O-])cc1Oc1ccccc1 [nimesulide],implantation sites,mice,reduced
O=c1c(O)c(-c2ccc(O)c(O)c2)oc2cc(O)cc(O)c12 [quercetin],oral bioavailability,[3],46.43%
same,IC50,[1],45.4 µM
same,improvement of cellular viability damage caused by D-Gal,[2],failed to effectively ameliorate
O=C1c2c(O)cc(O)cc2OC(c2ccc(O)c(O)c2)C1O (stereo not shown) [taxifolin],IC50,[1]; [5],263 µM
same,improvement of cellular viability damage caused by D-Gal,[2],effective improvement
